Experiment [1] addresses T1, HBV polymerase (Hepatitis B virus genotype D subtype ayw, UniProt P03156).
T1 construct: made in house; host or cells: E. coli
The experiment can be described thus: Inhibitory activities against HBV polymerase (reverse transcriptase activity) in vitro. The class given is biochemical. The following applies: read-out: Inhibitory activity of HBV-RT (%); for inhibition at 0.01 µg/mL: 0.01 μg/ml; for inhibition at 0.1 µg/mL: 0.1 μg/ml; for inhibition at 1 µg/mL: 1 μg/ml. An excerpt:
Experiment 1:Inhibitory Activities Against HBV Polymerase in vitro
Recently, the inventors of the present invention have produced a recombinant HBV polymerase that is expressed from E.coli transformant, measured its enzyme activity and filed patent applications threrof [Korean Pat. Appl. Nos. 94-3918 and 96-33998].
The inventors have also established a method of measuring the reverse transcriptase activity of HBV polymerase in vitro. The fundamental principle is the same as the ELISA method, and after reacting the substrate with biotin- and DIG-modified nucleotide, a method of recognizing the polymerized substrate as anti-DIG antibody with peroxidase was used.
20 μl of HBV polymerase, 20 μl of reaction mixture and 20 μl of test compound was mixed and reacted at 14° C.~30° C. for 18~24 hours. Then, the inhibitory effect of the test compound against reverse transcriptase activity in the HBV polymerase was examined, compared with the results of control tests without the test compound.

The target of experiment [2] is T2, HIV reverse transcriptase (Human immunodeficiency virus type 1 group M subtype B, UniProt P04585).
T2 construct: purchased Boehringer Mannheim
The experiment can be described thus: In vitro inhibition test against HIV reverse transcriptase. The class given is biochemical. The following applies: read-out: Inhibitory activity of HIV-RT (%). As for the experimental part: Experiment 2: The in vitro Inhibition Test Against HIV Reverse Transcriptase
The inhibitory activity in vitro was measured using a non-radioactive reverse transcriptase assay Kit (Boehringer Mannheim).
At first, 20 μl(40 ng) of HIV-RT was added to the wells, coated with streptavidin and with the addition of 20 μl reaction mixture containing template/primer hybrid poly(A)/oligo(dT)15 and DIG-(digoxigenin)-dUTP, biotin-dUTP and TTP, 20 μl of test compound was added and reacted at 37° C. for 1 hour. The control without test compound was used for the comparison of related activity. Since DNA containing nucleotide labeled with digoxigenin and biotine was prepared by the action of HIV-RT, it was combined with streptavidin coated at the bottom of the wells. After the reaction was completed, remaining impurities were removed by washing each well with 250 μl buffer solution (pH 7.0) for 30 seconds 5 times and with the addition of 200 μl anti-DIG-POD antibody, the mixture was reacted at 37° C. for 1 hour. For the removal of remaining impurities again, the reacting solution was washed with a buffer solution and with the addition of 200 μl ABTS™ each, a substrate of POD(peroxidase), the solution was reacted at room temperature for 30 minutes. The absorbance was read by ELISA reader at 405 nm for the assay of reverse transcriptase activity and its inhibition activity.

The structures appear in SMILES notation. Structures can show the parent of a compound that is named as a salt. Where two headings read alike, the source gives them in different places.

T1 sequence (P03156 whole entry): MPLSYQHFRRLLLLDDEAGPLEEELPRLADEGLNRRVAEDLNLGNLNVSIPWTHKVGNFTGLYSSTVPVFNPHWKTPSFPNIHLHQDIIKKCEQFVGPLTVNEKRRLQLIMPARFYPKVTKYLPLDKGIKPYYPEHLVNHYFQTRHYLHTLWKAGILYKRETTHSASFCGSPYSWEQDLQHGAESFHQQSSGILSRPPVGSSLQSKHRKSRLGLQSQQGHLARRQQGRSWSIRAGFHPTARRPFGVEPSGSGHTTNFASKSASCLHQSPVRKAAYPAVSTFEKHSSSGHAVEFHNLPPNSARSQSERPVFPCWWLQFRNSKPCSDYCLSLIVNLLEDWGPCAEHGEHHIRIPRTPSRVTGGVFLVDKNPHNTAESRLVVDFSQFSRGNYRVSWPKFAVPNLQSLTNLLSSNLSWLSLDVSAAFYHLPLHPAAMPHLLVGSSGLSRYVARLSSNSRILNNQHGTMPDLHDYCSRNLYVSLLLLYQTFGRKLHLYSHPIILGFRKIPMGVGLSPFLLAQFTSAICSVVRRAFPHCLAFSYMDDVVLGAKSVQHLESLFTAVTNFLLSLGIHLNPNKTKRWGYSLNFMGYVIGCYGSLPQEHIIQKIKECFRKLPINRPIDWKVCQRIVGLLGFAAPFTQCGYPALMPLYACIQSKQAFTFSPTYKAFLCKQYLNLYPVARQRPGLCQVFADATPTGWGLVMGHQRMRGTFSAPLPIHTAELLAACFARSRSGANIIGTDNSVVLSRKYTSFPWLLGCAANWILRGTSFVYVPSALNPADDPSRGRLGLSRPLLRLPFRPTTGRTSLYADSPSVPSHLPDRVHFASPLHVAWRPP

With `CC(C)Nc1cccnc1N1CCN(C(=O)c2ccc(C(=O)NCCc3ccccn3)cn2)CC1` [Exam. 82, 6-[1-[3-(isopropylamino)-2-pyridyl]piperazin-4-yl-carbonyl]-N-[2-(2-pyridyl)ethyl]nicotinamide], in experiment [1], the inhibition at 0.01 µg/mL was 24%, the inhibition at 0.1 µg/mL was 53% and the inhibition at 1 µg/mL is 67%. The inhibition at 0.1 µg/mL in experiment [2] (0.1 μg/ml) is 65%. In experiment [2] (1 μg/ml), the inhibition at 1 µg/mL was 80%.

As to `COCCCNC(=O)c1ccc(C(=O)N2CCN(CCO)CC2)nc1` [Exam. 99, 6-[1-(2-hydroxyethyl)piperazin-4-yl-carbonyl]-N-(3-methoxypropyl)nicotinamide], the inhibition at 0.01 µg/mL in experiment [1] stood at 15%. Further, the inhibition at 0.1 µg/mL is 60% in experiment [1] and 65% in experiment [2] (0.1 μg/ml). Moreover, the inhibition at 1 µg/mL in experiment [1] turned out to be 68%; in experiment [2] (1 μg/ml), 75%.

As for `CC(C)Nc1cccnc1N1CCN(C(=O)c2ccc(C(=O)Nc3ncccc3O)cn2)CC1` [Exam. 85, N-(3-hydroxy-2-pyridyl)-6-[1-[3-(isopropylamino)-2-pyridyl]piperazin-4-yl-carbonyl]nicotinamide], in experiment [1], the inhibition at 0.01 µg/mL was determined as 61%. The inhibition at 0.1 µg/mL in experiment [1] was determined as 70%; in experiment [2] (0.1 μg/ml) it was 47%. The results for the inhibition at 1 µg/mL in experiment [1] and in experiment [2] (1 μg/ml) were 88% and 70%, respectively.

Consider `CC(C)Nc1cccnc1N1CCN(C(=O)c2ccc(C(=O)N(CCO)CCO)cn2)CC1` [Exam. 16, 5-[N,N-bis(2-hydroxyethyl)carbamoyl]-2-[1-[3-(isopropylamino)-2-pyridyl]piperazin-4-yl-carbonyl]pyridine], for which, in experiment [1], the inhibition at 0.01 µg/mL came out at 51%, the inhibition at 0.1 µg/mL amounted to 60% and the inhibition at 1 µg/mL amounted to 70%. In addition, the inhibition at 0.1 µg/mL in experiment [2] (0.1 μg/ml) worked out at 47%. For the same compound, the inhibition at 1 µg/mL in experiment [2] (1 μg/ml) was determined as 68%.

On to `COC(CN(C)C(=O)c1ccc(C(=O)N2CCN(c3ncccc3NC(C)C)CC2)nc1)OC` [Exam. 50, 5-[N-(2,2-dimethoxyethyl)-N-methylcarbamoyl]-2-[1-[3-(isopropylamino)-2-pyridyl]piperazin-4-yl-carbonyl]pyridine.HCl], for which, in experiment [1], the inhibition at 0.01 µg/mL came out at 15%, the inhibition at 0.1 µg/mL is 51% and the inhibition at 1 µg/mL was determined as 60%. In experiment [2] (0.1 μg/ml), the inhibition at 0.1 µg/mL turned out to be 40%. For the same compound, the inhibition at 1 µg/mL in experiment [2] (1 μg/ml) came to 55%.

Regarding `CCN(CC)C(=O)c1ccc(C(=O)N2CCN(c3ncccc3NC(C)C)CC2)nc1` [Exam. 33, 5-(N,N-diethylcarbamoyl)-2-[1-[3-(isopropylamino)-2-pyridyl]piperazin-4-yl-carbonyl]pyridine], in experiment [1], the inhibition at 0.01 µg/mL turned out to be 20%, the inhibition at 0.1 µg/mL worked out at 62% and the inhibition at 1 µg/mL came out at 73%. Further, the inhibition at 0.1 µg/mL in experiment [2] (0.1 μg/ml) was found to be 64%. The inhibition at 1 µg/mL in experiment [2] (1 μg/ml) came out at 80%.

With `COCC(C)NC(=O)c1ccc(C(=O)N2CCN(c3ncccc3NC(C)C)CC2)nc1` (stereo not drawn) [Exam. 43, 2-[1-[3-(isopropylamino)-2-pyridyl]piperazin-4-yl-carbonyl]-5-[N-(2-methoxy-1-methylethyl)carbamoyl]pyridine], in experiment [1], the inhibition at 0.01 µg/mL was found to be 50%, the inhibition at 0.1 µg/mL worked out at 61% and the inhibition at 1 µg/mL stood at 68%. The inhibition at 0.1 µg/mL in experiment [2] (0.1 μg/ml) worked out at 44%. The inhibition at 1 µg/mL in experiment [2] (1 μg/ml) came to 56%.

For `COC(CNC(=O)c1ccc(C(=O)N2CCN(CCO)CC2)nc1)OC` [Exam. 101, N-(2,2-dimethoxyethyl)-6-[1-(2-hydroxyethyl)piperazin-4-yl-carbonyl]nicotinamide], in experiment [1], the inhibition at 0.01 µg/mL came to 55%, the inhibition at 0.1 µg/mL came out at 63% and the inhibition at 1 µg/mL was found to be 85%. In experiment [2], the inhibition at 0.1 µg/mL was 41% and the inhibition at 1 µg/mL came to 56%.

On to `CC(C)CNc1cccnc1N1CCN(C(=O)c2ccc(C(=O)NC3CC3)cn2)CC1` [Exam. 36], for which, in experiment [1], the inhibition at 0.01 µg/mL amounted to 60%, the inhibition at 0.1 µg/mL stood at 71% and the inhibition at 1 µg/mL turned out to be 87%. Moreover, the inhibition at 0.1 µg/mL in experiment [2] (0.1 μg/ml) came out at 60%. Also, the inhibition at 1 µg/mL in experiment [2] (1 μg/ml) amounted to 73%.

For `CC(C)NC(=O)c1ccc(C(=O)N2CCN(CCO)CC2)nc1` [Exam. 87, 6-[1-(2-hydroxyethyl)piperazin-4-yl-carbonyl]-N-isopropylnicotinamide.HCl], in experiment [1], the inhibition at 0.01 µg/mL came out at 52%, the inhibition at 0.1 µg/mL is 58% and the inhibition at 1 µg/mL is 75%. The inhibition at 0.1 µg/mL in experiment [2] (0.1 μg/ml) came out at 60%. Further, in experiment [2] (1 μg/ml), the inhibition at 1 µg/mL is 81%.

`COCCCNC(=O)c1ccc(C(=O)N2CCN(c3ncccc3NCC(C)C)CC2)nc1` [Exam. 47, 2-[1-[3-(isobutylamino)-2-pyridyl]piperazin-4-yl-carbonyl]-5-[N-(3-methoxypropyl)carbamoyl]pyridine]: in experiment [1], the inhibition at 0.01 µg/mL was 20%, the inhibition at 0.1 µg/mL amounted to 51% and the inhibition at 1 µg/mL came to 72%. Also, the inhibition at 0.1 µg/mL in experiment [2] (0.1 μg/ml) was determined as 53%. Also, the inhibition at 1 µg/mL in experiment [2] (1 μg/ml) was 69%.

Regarding `Cc1csc(NC(=O)c2ccc(C(=O)N3CCN(c4ncccc4NC(C)C)CC3)nc2)n1` [Exam. 68, 6-[1-[3-(isopropylamino)-2-pyridyl)piperazin-4-yl-carbonyl]-N-(4-methyl-1,3-thiazol-2-yl)nicotinamide], in experiment [1], the inhibition at 0.01 µg/mL was 30%, the inhibition at 0.1 µg/mL amounted to 69% and the inhibition at 1 µg/mL was 81%. Further, the inhibition at 0.1 µg/mL in experiment [2] (0.1 μg/ml) turned out to be 53%. Also, the inhibition at 1 µg/mL in experiment [2] (1 μg/ml) came out at 70%.

With `O=C(NCc1ccco1)c1ccc(C(=O)N2CCN(CCO)CC2)nc1` [Exam. 103, N-(2-Furylmethyl)-6-[1-(2-hydroxyethyl)piperazin-4-yl-carbonyl]nicotinamide.HCl], in experiment [1], the inhibition at 0.01 µg/mL turned out to be 20%, the inhibition at 0.1 µg/mL came to 54% and the inhibition at 1 µg/mL came out at 72%. Also, in experiment [2] (0.1 μg/ml), the inhibition at 0.1 µg/mL is 65%. Also, in experiment [2] (1 μg/ml), the inhibition at 1 µg/mL turned out to be 80%.

On to `COCCNC(=O)c1ccc(C(=O)N2CCN(c3ncccc3NCC(C)C)CC2)nc1` [Exam. 41, 2-[1-[3-(isobutylamino)-2-pyridyl]piperazin-4-yl-carbonyl]-5-[N-(2-methoxyethyl)carbamoyl]-pyridine], for which, in experiment [1], the inhibition at 0.01 µg/mL turned out to be 52%, the inhibition at 0.1 µg/mL worked out at 70% and the inhibition at 1 µg/mL turned out to be 85%. The inhibition at 0.1 µg/mL in experiment [2] (0.1 μg/ml) came to 34%. The inhibition at 1 µg/mL in experiment [2] (1 μg/ml) came to 55%.

For the compound `CC(C)Nc1cccnc1N1CCN(C(=O)c2ccc(C(=O)NC(C)(C)CO)cn2)CC1` [Exam. 6, 5-[N-(1,1-dimethyl-2-hydroxyethyl)carbamoyl]-2-[1-[3-(isopropylamino)-2-pyridyl]piperazin-4-yl-carbonyl]pyridine], in experiment [1], the inhibition at 0.01 µg/mL turned out to be 62%, the inhibition at 0.1 µg/mL stood at 65% and the inhibition at 1 µg/mL was determined as 80%. In experiment [2] (0.1 μg/ml), the inhibition at 0.1 µg/mL amounted to 48%. Besides, the inhibition at 1 µg/mL in experiment [2] (1 μg/ml) came out at 70%.

On to `CC(C)Nc1cccnc1N1CCN(C(=O)c2ccc(C(=O)NC3CCSC3=O)cn2)CC1` (stereo not drawn) [Exam. 57, 2-[1-[3-(isopropylamino)-2-pyridyl]piperazin-4-yl-carbonyl]-5-[N-(tetrahydro-2-thiophenon-3-yl)carbamoyl]pyridine], for which, in experiment [1], the inhibition at 0.01 µg/mL came out at 23%, the inhibition at 0.1 µg/mL worked out at 53% and the inhibition at 1 µg/mL came out at 72%. For the same compound, the inhibition at 0.1 µg/mL in experiment [2] (0.1 μg/ml) was determined as 61%. In experiment [2] (1 μg/ml), the inhibition at 1 µg/mL turned out to be 70%.

Regarding `CC(C)Nc1cccnc1N1CCN(C(=O)c2ccc(C(=O)NCCCn3ccnc3)cn2)CC1` [Exam. 83, N-[3-(1H-imidazol-1-yl)propyl]-6-[1-[3-(isopropylamino)-2-pyridyl]piperazin-4-yl-carbonyl]nicotinamide], in experiment [1], the inhibition at 0.01 µg/mL amounted to 65%, the inhibition at 0.1 µg/mL came to 72% and the inhibition at 1 µg/mL turned out to be 89%. In addition, the inhibition at 0.1 µg/mL in experiment [2] (0.1 μg/ml) worked out at 30%. Moreover, the inhibition at 1 µg/mL in experiment [2] (1 μg/ml) was 62%.

As for `O=C(NCCN1CCOCC1)c1ccc(C(=O)N2CCN(CCO)CC2)nc1` [Exam. 102, 6-[1-(2-hydroxyethyl)piperazin-4-yl-carbonyl]-N-[2-(morpholin-4-yl)-ethyl]nicotinamide.HCl], in experiment [1], the inhibition at 0.01 µg/mL worked out at 32%, the inhibition at 0.1 µg/mL was 56% and the inhibition at 1 µg/mL is 70%. For the same compound, the inhibition at 0.1 µg/mL in experiment [2] (0.1 μg/ml) stood at 25%. Also, the inhibition at 1 µg/mL in experiment [2] (1 μg/ml) turned out to be 40%.

The values above are taken from patent US6306860A, “2,5-pyridinedicarboxylic acid derivatives” (Dong Wha Pharm. Inc. Co., Ltd., priority 1998, dated 2001).
